Results on 26 molecules are retold here after patent US7932271B2, “Heterocyclic methyl sulfone derivative” (Daiichi Pharmaceutical Co., Ltd., priority 2003, dated 2011).

For orientation: melting point means the temperature of the solid-liquid transition.

Structures are written as SMILES. Structures can show the parent of a compound that is named as a salt. A value given as a limit tells only on which side of the number the result lay.

`NCCNc1cc(C(c2cc(F)ccc2F)S(=O)(=O)c2ccc(Cl)cc2)c(Cl)cn1` (centres unmarked) (as salt: hydrochloride) [Example 193, N-[5-Chloro-4-[(4-chlorophenylsulfonyl)-(2,5-difluorophenyl)methyl]pyridin-2-yl]ethane-1,2-diamine dihydrochloride] had a melting point of 163 to 166 °C.

As for `NCCNC(=O)c1ccc(C(c2cc(F)ccc2F)S(=O)(=O)c2ccc(Cl)cc2)nc1` (centres unmarked) (as salt: hydrochloride) [Example 139, N-(2-Aminoethyl)-6-[(4-chlorophenylsulfonyl)(2,5-difluorophenyl)methyl]nicotinamide], the melting point is > 250 °C (dec.).

For `O=S(=O)(c1ccc(Cl)cc1)C(c1cc(F)ccc1F)c1ncc(CO)cc1F` (centres unmarked) [Example 125, [6-(4-Chlorophenylsulfonyl)(2,5-difluorophenyl)methyl-5-fluoropyridin-3-yl]methanol], the melting point lay in the range of 181 to 183 °C.

Turning to `O=S(=O)(c1ccc(Cl)cc1)C(c1ccncc1)C1CCCC1` (centres unmarked) [Example 2, 4-[(4-Chlorophenylsulfonyl)(cyclopentyl)methyl]pyridine], the melting point was in the range of 133 to 135 °C.

Molecule `O=S(=O)(c1ccc(Cl)cc1)C(c1cc(F)ccc1F)c1cc(CO)ncc1Br` (centres unmarked) [Example 228, [5-Bromo-4-[(4-chlorophenylsulfonyl)(2,5-difluorophenyl)methyl]pyridin-2-yl]methanol] showed a melting point of 172 to 173 °C.

`Fc1ccc(F)c(C(Sc2ccc(Cl)cc2)c2ccncc2Cl)c1` (centres unmarked) [Example 53, 3-Chloro-4-[(4-chlorophenylthio)-(2,5-difluorophenyl)methyl]pyridine] gave a melting point of 70 to 72 °C.

In turn, `O=S(=O)(c1ccc(Cl)cc1)C(c1ccncc1)C1CCOCC1` (centres unmarked) [Example 3, 4-[(4-Chlorophenylsulfonyl)(tetrahydropyran-4-yl)methyl]pyridine] displayed a melting point of 208 to 209 °C.

`O=S(=O)(CCO)Nc1cc(C(c2cc(F)ccc2F)S(=O)(=O)c2ccc(Cl)cc2)c(Cl)cn1` (centres unmarked) [Example 284, N-[5-Chloro-4-[(4-chlorophenylsulfonyl)(2,5-difluorophenyl)methyl]pyridin-2-yl]-2-hydroxyethanesulfonamide] had a melting point of 155 to 158 °C.

Molecule `O=S(=O)(c1ccc(Cl)cc1)C(c1cncnc1)c1cc(F)ccc1F` (centres unmarked) [Example 21, 5-[[(4-Chlorophenyl)sulfonyl]-(2,5-difluorophenyl)methyl]pyrimidine] displayed a melting point of 136 to 137 °C.

Turning to `Nc1cc(C(c2cc(F)ccc2F)S(=O)(=O)c2ccc(Cl)cc2)c(Br)cn1` (centres unmarked) [Example 232, [5-Bromo-4-[(4-chlorophenylsulfonyl)(2,5-difluorophenyl)methyl]pyridin-2-yl]amine], the melting point fell in the range of 204 to 206 °C.

Turning to `COc1ccc(-n2ccnc2C(c2cc(F)ccc2F)S(=O)(=O)c2ccc(Cl)cc2)cc1` (centres unmarked) [Example 31, 2-[[(4-Chlorophenyl)sulfonyl]-(2,5-difluorophenyl)methyl]-1-(4-methoxyphenyl)-1H-imidazole], the melting point fell in the range of 150 to 151 °C.

With `NCCNC(=S)c1ccc(C(c2cc(F)ccc2F)S(=O)(=O)c2ccc(Cl)cc2)nc1` (centres unmarked) (as salt: hydrochloride) [Example 142, N-(2-Aminoethyl)-6-[(4-chlorophenylsulfonyl)(2,5-difluorophenyl)methyl]thionicotinamide], the melting point was in the range of 164 to 166 °C.

As to `O=S(=O)(c1ccc(Cl)cc1)C(c1cc(F)ccc1F)c1cc(NCCOCCO)ncc1Cl` (centres unmarked) [Example 183, 2-[2-[5-Chloro-4-[(4-chlorophenylsulfonyl)(2,5-difluorophenyl)methyl]pyridin-2-ylamino]ethoxy]ethanol], the melting point lay in the range of 113 to 115 °C.

The molecule `O=S(=O)(c1ccc(Cl)cc1)C(c1nccs1)c1cc(F)ccc1F` (centres unmarked) [Example 30, 2-[[(4-Chlorophenyl)sulfonyl]-(2,5-difluorophenyl)methyl]thiazole] displayed a melting point of 163 to 164 °C.

The molecule `O=S(=O)(c1ccc(Cl)cc1)C(c1cc(F)ccc1F)c1cc(NCCc2ccncc2)ncc1Cl` (centres unmarked) [Example 181, 5-Chloro-4-[(4-chlorophenylsulfonyl)(2,5-difluorophenyl)methyl]-2-[2-(pyridin-4-yl)ethylamino]pyridine] showed a melting point of 148 to 150 °C.

Turning to `COC(=O)CCc1ccc(C(c2cc(F)ccc2F)S(=O)(=O)c2ccc(Cl)cc2)nc1` (centres unmarked) [Example 45, Methyl 3-[6-[(4-chlorophenylsulfonyl)-(2,5-difluorophenyl)methyl]pyridin-3-yl]propionate], the melting point was 121 to 123 °C.

With `O=S(=O)(c1ccc(Cl)cc1)C(c1cc(F)ccc1F)C1CCOCC1` (centres unmarked) [Example 34, 4-[[(4-Chlorophenyl)sulfonyl](2,5-difluorophenyl)methyl]tetrahydropyrane], the melting point was 150 to 152 °C.

Consider `CN(C)CC(=O)NCc1ccc(C(c2cc(F)ccc2F)S(=O)(=O)c2ccc(Cl)cc2)nc1` (centres unmarked) [Example 71, N-[[6-[(4-Chlorophenylsulfonyl)(2,5-difluorophenyl)methyl]pyridin-3-yl]methyl]-2-dimethylaminoacetamide], for which the melting point lay in the range of 177 to 179 °C.

Consider `O=S(=O)(Cc1ccc(C(c2cc(F)ccc2F)S(=O)(=O)c2ccc(Cl)cc2)nc1)c1ccc(Cl)cc1` (centres unmarked) [Example 40, 2-[(4-Chlorophenylsulfonyl)-(2,5-difluorophenyl)methyl]-5-[(4-chlorophenylsulfonyl)methyl]pyridine], for which the melting point lay in the range of 186 to 187 °C.

`O=S(=O)(c1ccc(Cl)cc1)C(c1cc[n+]([O-])cc1)c1cc(F)ccc1F` (centres unmarked) [Example 52, 4-[(4-Chlorophenylsulfonyl)-(2,5-difluorophenyl)methyl]pyridine-N-oxide] registered a melting point of 211 to 212 °C.

With `O=S(=O)(c1ccc(Cl)cc1)C(c1cc(F)ccc1F)c1cc(NCc2ccncc2)ncc1Cl` (centres unmarked) [Example 188, 5-Chloro-4-[(4-chlorophenylsulfonyl)(2,5-difluorophenyl)methyl]-2-[(pyridin-4-ylmethyl)amino]pyridine], the melting point was in the range of 141 to 142 °C.

On to `CN1CCN(C(=O)CCc2cnc(C(c3cc(F)ccc3F)S(=O)(=O)c3ccc(Cl)cc3)c(F)c2)CC1.Cl` (centres unmarked), for which the melting point was 243 to 245 °C.

As to `O=C1C(C(c2cc(F)ccc2F)S(=O)(=O)c2ccc(Cl)cc2)CCCN1CCCO` (centres unmarked) [Example 153, 3-[(4-Chlorophenylsulfonyl)(2,5-difluorophenyl)methyl]-1-(3-hydroxypropyl)piperidin-2-one], the melting point was in the range of 120 to 121 °C.

As for `Cc1cnc(C(=O)O)cc1C(c1cc(F)ccc1F)S(=O)(=O)c1ccc(Cl)cc1` (centres unmarked) [Example 209, 4-[(4-Chlorophenylsulfonyl)(2,5-difluorophenyl)methyl]-5-methylpicolinic acid], the melting point is 105 to 107 °C.

Consider `Cn1c(Cl)cnc1C(c1cc(F)ccc1F)S(=O)(=O)c1ccc(Cl)cc1` (centres unmarked) [Example 29, 2-[[(4-Chlorophenyl)sulfonyl]-(2,5-difluorophenyl)methyl]-1-methyl-5-chloro-1H-imidazole], for which the melting point was 179 to 180 °C.

The molecule `O=C(O)c1cnc(C(c2cc(F)ccc2F)S(=O)(=O)c2ccc(Cl)cc2)c(F)c1` (centres unmarked) [Example 127, 6-(4-Chlorophenylsulfonyl)(2,5-difluorophenyl)methyl-5-fluoronicotinic acid] showed a melting point of 249 to 251 °C.
